Reference: ChEMBL document CHEMBL1201862, “PubChem BioAssay data set” (2004)
Calls of active or inactive are those of the source.

What was measured:
[1] = microbe, parasite or virus in culture; type: functional; conditions: Mycobacterium tuberculosis
[2] = THP-1 cell cytotoxicity, dose response, cytotoxicity control for non-replicating M. tuberculosis project (AID 489025); type: functional
[3] = molecular target: Heat shock protein HSP 90-alpha (Homo sapiens, UniProt P07900); type: functional, organism-based
[4] = molecular target: Neurotensin receptor type 1 (Homo sapiens, UniProt P30989); type: functional;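 also: Image-based confirmatory dose-response assay measuring agonist activity at NTR1; NTR1-expressing U2OS osteosarcoma cells imaged for beta-arrestin GFP spot formation; agonist potency where compounds increase beta-arrestin recruitment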
[5] = Vero E6 cell cytotoxicity, dose response, cytotoxicity control for non-replicating M. tuberculosis project, secondary assay (AID 492998); type: functional, VeroE6; conditions: Vero C1008
[6] = system: INS1; experiment: beta cell apoptosis inhibitors, cytokine rescue, dose response, luminescence, retest (AID 449756); type: functional, cell-based; conditions: Rattus norvegicus;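 also: cell death triggered by IL-1 beta plus TNF-alpha plus IFN-gamma mixture; protective hits raise ATP signal compared with cytokine alone wells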
[7] = cells; type: functional
[8] = molecular target: T1, Bcl-2-like protein 10 (Homo sapiens, UniProt Q9HD36); experiment: displacers of TR3 peptide from Bcl-B, primary screen, selectivity assay for Bfl-1 inhibitor project, biochemical, fluorescence polarization, FITC-TR3 peptide (AID 748);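 also: fluorescence polarization from a fluorescein-labelled TR3 peptide binding purified Bcl-B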
T1 sequence (Q9HD36 whole entry): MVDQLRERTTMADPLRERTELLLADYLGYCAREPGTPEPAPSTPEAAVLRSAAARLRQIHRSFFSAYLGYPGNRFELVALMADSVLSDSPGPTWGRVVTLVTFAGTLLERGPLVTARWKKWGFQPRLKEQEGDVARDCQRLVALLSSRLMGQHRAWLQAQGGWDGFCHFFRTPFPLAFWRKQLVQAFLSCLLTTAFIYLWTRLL

[9] = molecular target: Troponin, cardiac muscle (Homo sapiens, UniProt P19429+P45379+P63316); experiment: Fluorescence-based biochemical high throughput dose response assay for activators of the calcium sensitivity of cardiac Regulated Thin Filaments (RTF). [Related pubchem assays (depositor defined):AID493008, AID493018, AID504382, AID504383]; type: protein-complex assay
[10] = molecular target: T2, Lysosomal acid glucosylceramidase (Homo sapiens, UniProt P04062); experiment: Dose response cell-based high throughput screening assay to identify enhancers of beta-glucosidase activity. [Related pubchem assays: 784 ]; type: functional
T2 sequence (P04062 whole entry): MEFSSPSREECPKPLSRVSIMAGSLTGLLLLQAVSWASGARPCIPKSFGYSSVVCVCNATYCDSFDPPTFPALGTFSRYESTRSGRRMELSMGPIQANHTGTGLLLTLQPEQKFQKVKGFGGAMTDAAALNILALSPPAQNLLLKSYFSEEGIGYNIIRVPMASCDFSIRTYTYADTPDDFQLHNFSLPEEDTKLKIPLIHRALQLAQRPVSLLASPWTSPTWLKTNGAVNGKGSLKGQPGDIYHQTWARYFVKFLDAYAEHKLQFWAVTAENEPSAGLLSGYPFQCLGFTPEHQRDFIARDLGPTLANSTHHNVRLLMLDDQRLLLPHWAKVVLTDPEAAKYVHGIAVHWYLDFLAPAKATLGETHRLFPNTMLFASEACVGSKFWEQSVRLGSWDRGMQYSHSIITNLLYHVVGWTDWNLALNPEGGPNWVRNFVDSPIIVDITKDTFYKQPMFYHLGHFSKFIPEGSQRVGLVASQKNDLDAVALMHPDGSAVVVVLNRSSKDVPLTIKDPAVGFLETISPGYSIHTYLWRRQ

[11] = molecular target: G-protein coupled receptor 55 (Homo sapiens, UniProt Q9Y2T6); experiment: GPR55 agonists via beta-arrestin recruitment, primary screen, imaging, U2OS cells, beta-arrestin-GFP redistribution (AID 1961); type: functional
[12] = molecular target: Cytochrome P450 3A4 (Homo sapiens, UniProt P08684); conditions: Potency;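 also: confirmatory qHTS run detecting inhibitors and substrates of CYP3A4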
[13] = molecular target: T3, Bcl-2-related protein A1 (Mus musculus, UniProt Q07440); type: functional;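 also: confirmatory dose–response counterscreen on Bfl-1, used to check hits from a UBC13 polyubiquitin inhibitor campaign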
T3 sequence (Q07440 whole entry): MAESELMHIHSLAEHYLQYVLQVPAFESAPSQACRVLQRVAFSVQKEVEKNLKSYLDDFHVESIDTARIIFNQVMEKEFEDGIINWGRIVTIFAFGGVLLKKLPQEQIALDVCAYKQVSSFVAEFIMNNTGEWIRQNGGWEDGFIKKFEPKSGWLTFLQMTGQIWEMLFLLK

[14] = molecular target: T4, Ubiquitin-conjugating enzyme E2 N (Homo sapiens, UniProt P61088); type: functional
T4 sequence (P61088 whole entry): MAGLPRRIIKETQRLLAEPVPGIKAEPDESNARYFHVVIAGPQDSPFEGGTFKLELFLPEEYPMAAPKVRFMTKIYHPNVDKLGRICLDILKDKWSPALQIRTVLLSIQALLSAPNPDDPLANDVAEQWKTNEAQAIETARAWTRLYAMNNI

[15] = molecular target: T4, Ubiquitin-conjugating enzyme E2 N; type: functional; remark: listed apart in the source
[16] = HEp-2 cell cytotoxicity, dose response, cytotoxicity control for RSV inhibitor project, HTS (AID 2410); type: functional; conditions: human respiratory syncytial virus
[17] = molecular target: Glyceraldehyde-3-phosphate dehydrogenase (Homo sapiens, UniProt P04406)
[18] = molecular target: T5, Cytochrome P450 1A2 (Homo sapiens, UniProt P05177);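 also: PubChem cytochrome P450 panel assay, CYP1A2 panel member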
T5 sequence (P05177 whole entry): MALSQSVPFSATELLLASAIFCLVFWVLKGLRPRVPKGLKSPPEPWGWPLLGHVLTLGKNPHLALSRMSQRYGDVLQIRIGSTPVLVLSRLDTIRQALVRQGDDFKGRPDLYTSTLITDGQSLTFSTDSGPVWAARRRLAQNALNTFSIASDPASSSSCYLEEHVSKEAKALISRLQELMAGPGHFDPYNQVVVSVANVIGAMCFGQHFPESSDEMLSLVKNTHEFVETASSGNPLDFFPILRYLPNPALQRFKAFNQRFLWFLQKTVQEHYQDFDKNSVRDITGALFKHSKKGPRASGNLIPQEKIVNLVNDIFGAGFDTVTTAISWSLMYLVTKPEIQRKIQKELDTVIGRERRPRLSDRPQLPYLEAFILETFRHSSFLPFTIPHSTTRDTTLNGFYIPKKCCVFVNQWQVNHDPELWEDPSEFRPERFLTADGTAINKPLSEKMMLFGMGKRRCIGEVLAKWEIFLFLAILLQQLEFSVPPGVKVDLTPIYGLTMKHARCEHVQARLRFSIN

[19] = molecular target: Induced myeloid leukemia cell differentiation protein Mcl-1 (Homo sapiens, UniProt Q07820); type: functional
[20] = inhibitors of intracellular T. cruzi replication, confirmation, NIH3T3 host cells, beta-gal luminescence (AID 2044); type: functional, cell-based;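 also: intracellular parasites grown in NIH/3T3 mouse fibroblasts as host cells; luminescent beta-galactosidase reporter signal from transgenic T. cruzi replicating inside host cells; inhibitors lower the luminescence signal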
[21] = cytotoxicity toward NIH3T3 fibroblasts, dose response, counter-screen, cell-based, ATP luminescence, mouse fibroblasts (AID 2010); type: functional;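 also: cells exposed to compound for about 90 hours before reading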
[22] = molecular target: DNA dC->dU-editing enzyme APOBEC-3G (Homo sapiens, UniProt Q9HC16); experiment: Dose Response confirmation of small molecule APOBEC3G DNA Deaminase Inhibitors via a fluorescence-based single-stranded DNA deaminase assay. [Related pubchem assays (depositor defined):AID493012, AID493028]; type: functional
[23] = Luminescence Cell-Based Dose Retest to Confirm Inhibitors of Cancer Stem Cells. [Related pubchem assays (depositor defined):AID2717, AID2721]; type: functional; conditions: Homo sapiens
[24] = C. albicans growth with fluconazole, confirmation, fluorescence, retest (AID 2467); type: functional, cell-based
[25] = system: Streptococcus; experiment: Group A Streptococcus viability loss, dose response, counter-screen for streptokinase expression inhibitor project, luminescence, BacTiterGlo (AID 1915); type: functional, organism-based;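 also: potency for reduction of bacterial viability or growth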
[26] = cells; type: functional, cell-based
[27] = system: HEK293; experiment: NOD1 signaling inhibitors, primary screen, cell-based, luminescence, uHTS (AID 1578); type: functional; conditions: Homo sapiens
[28] = system: HEK293; experiment: NOD2 signaling inhibitors in MDP-stimulated cells, cell-based, uHTS, luminescence (AID 2001); type: functional; conditions: Homo sapiens
[29] = system: HEK293; experiment: cells; type: functional, cell-based; conditions: Homo sapiens
[30] = NIH-3T3 fibroblast cytotoxicity, dose response, cytotoxicity control, cell-based, fluorescence, Alamar Blue, secondary assay (AID 2327); type: functional;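 also: NIH-3T3 mouse fibroblasts cultured with fluconazole at 8 µg/mL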
[31] = molecular target: Nucleotide-binding oligomerization domain-containing protein 2 (Homo sapiens, UniProt Q9HC29); experiment: NOD2 signaling inhibitors, cell-based, luminescence, uHTS, HEK293 (AID 1566); type: functional
[32] = system: HEK293; experiment: cells; type: functional, cell-based; conditions: Homo sapiens; remark: listed apart in the source
[33] = system: Streptococcus sp. 'group A'; experiment: growth inhibition of control SK(-) GAS strain, dose response, counter-screen for streptokinase expression inhibitor project, luminescence, kanamycin, BacTiterGlo, confirmation (AID 1900); type: functional, organism-based
[34] = cells; type: functional, cell-based; remark: listed apart in the source

Nc1ccccc1C#CC(=O)c1ccccc1
CC50 [1]: 16.9 µM (active) | CC50 [2]: 23.5 µM (active) | AC50 [3]: 5.42 µM (active) | EC50 [4]: 8.09 µM (active) | CC50 [5]: 17.4 µM (active) | AC50 [6]: 7.81 µM (active) | IC50 [7]: 4.2 µM (active)

Cc1cc(C)nc(Nc2ccc(N3CCCC3)cc2)n1
IC50 [8]: 61.9 µM (inactive)

C=CCOc1ccc(Br)cc1CNCC
EC50 [9]: > 71.5 µM (inactive)

Cc1ccccc1OCC(=O)N(Cc1cccs1)C1CCS(=O)(=O)C1 (stereo unspecified)
EC50 [10]: > 50 µM (not active)

CCOc1ccc(C2CC(c3c(O)oc4ccccc4c3=O)=NN2c2ccccc2)cc1OC (stereo unspecified)
EC50 [11]: 8.61 µM (active)

C=CCn1c(S)nnc1-c1c[nH]c2ccccc12
EC50 [10]: > 50 µM (not active)

COc1ccc(N)c(OC)c1
AC50 [12]: 25.1 µM (inconclusive)

O=C(c1ccc(S(=O)(=O)N2CCCC2)cc1)N1CCC(CN2C(=O)c3cccc4cccc(c34)C2=O)CC1
IC50 [13]: > 20 µM (inactive) | IC50 [14]: 6.28 µM (active) | IC50 [15]: 8.21 µM (active)

CCOC(=O)c1nnc(-c2ccc(C)cc2)nc1Oc1ccc(Cl)cc1Cl
EC50 [11]: 12.4 µM (inactive) | CC50 [16]: 14.1 µM (active)

O=C(O)CSc1nc(-c2ccccc2)cs1
IC50 [17]: > 100 µM (not active)

Cc1nc(NC(=O)c2ccco2)sc1-c1csc(Nc2ccc(Cl)cc2Cl)n1
AC50 [18]: 15.8 µM (inconclusive) | IC50 [8]: > 100 µM (inactive) | IC50 [19]: 1.56 µM (active) | EC50 [20]: 0.537 µM (active) | EC50 [21]: > 60 µM (not active)

CN1C[C@@H]2C(c3ccc(Cl)nc3)C3(c4ccc(C#N)cc4)CC2(C3)[C@H]1c1ccccc1 (stereo partly specified)
AC50 [12]: 15.8 µM (inconclusive)

Cc1[nH]c(=O)[nH]c(=S)c1C(=O)Nc1ccc(Cl)c(Cl)c1
IC50 [22]: 9.67 µM (active)

O=C(O)c1ccccc1CSc1nnnn1-c1ccccc1
EC50 [9]: > 71.5 µM (inactive)

CC1CCN(CCCNC(=O)c2ccc3c(=O)n(Cc4ccc(Cl)cc4)c(=S)[nH]c3c2)CC1
AC50 [23]: 6.37 µM (active) | EC50 [4]: 17.9 µM (active) | IC50 [14]: > 20 µM (inactive)

COc1cccc(/C=N/NC(=O)c2c(C)nc3ccc(Cl)cn23)c1O
EC50 [24]: 1.36 µM (active) | EC50 [25]: 7.14 µM (active) | EC50 [26]: > 350 µM (not active) | EC50 [27]: > 20 µM (inactive) | IC50 [28]: > 20 µM (inactive) | IC50 [29]: > 20 µM (inactive) | EC50 [30]: > 160 µM (inactive) | EC50 [31]: > 20 µM (inactive) | IC50 [32]: > 20 µM (inactive) | EC50 [33]: 3.25 µM (active) | EC50 [34]: 6.42 µM (active) | AC50 [6]: 0.879 µM (active)

O=C(CSCc1ccc([N+](=O)[O-])cc1)N/N=C/c1ccncc1
IC50 [13]: > 20 µM (inactive) | IC50 [14]: 17.3 µM (active) | IC50 [15]: > 20 µM (inactive)

CCOC(=O)c1c(C)cc(OC)cc1O [ETHYL EVERNINATE]
AC50 [12]: 31.6 µM (inconclusive)
